According to PubChem BioAssay (NCI):
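Dose response: 5 concentrations. Exposure: 48 h. Format: 96-well plates. Endpoint: linear interpolation; highest concentration if not reached. Definition used: TGI = concentration required for complete inhibition of growth.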

Key:
Experiment in all cases: DTP human tumour cell line panel, 48 h
OVCAR-3 ovarian = system: OVCAR-3 ovarian
MALME-3M melanoma = system: MALME-3M melanoma
DU-145 prostate = system: DU-145 prostate
K-562 leukemia = system: K-562 leukemia
SN12C renal = system: SN12C renal
NCI-H226 lung = system: NCI-H226 lung
SF-295 CNS = system: SF-295 CNS
786-0 renal = system: 786-0 renal
ACHN renal = system: ACHN renal
MOLT-4 leukemia = system: MOLT-4 leukemia
M14 melanoma = system: M14 melanoma
HOP-92 NSCLC = system: HOP-92 NSCLC
SF-268 CNS = system: SF-268 CNS
CCRF-CEM leukemia = system: CCRF-CEM leukemia
HL-60(TB) leukemia = system: HL-60(TB) leukemia
RXF 393 renal = system: RXF 393 renal
SK-MEL-5 melanoma = system: SK-MEL-5 melanoma
NCI-H460 lung = system: NCI-H460 lung
HOP-62 NSCLC = system: HOP-62 NSCLC
OVCAR-5 ovarian = system: OVCAR-5 ovarian

Cc1cc(C)c2c(c1)C(=O)C1(C2)Cc2c(ccc(C)c2C)C1=O (stereo not drawn)
TGI (OVCAR-3 ovarian): > 100 µM | TGI (MALME-3M melanoma): > 100 µM | TGI (DU-145 prostate): > 100 µM | TGI (K-562 leukemia): > 100 µM | TGI (SN12C renal): > 100 µM | TGI (NCI-H226 lung): > 100 µM | TGI (SF-295 CNS): > 100 µM | TGI (786-0 renal): > 100 µM | TGI (ACHN renal): > 100 µM | TGI (MOLT-4 leukemia): > 100 µM | TGI (M14 melanoma): > 100 µM | TGI (HOP-92 NSCLC): > 100 µM | TGI (SF-268 CNS): > 100 µM | TGI (CCRF-CEM leukemia): > 100 µM | TGI (HL-60(TB) leukemia): > 100 µM | TGI (RXF 393 renal): > 100 µM | TGI (SK-MEL-5 melanoma): > 100 µM | TGI (NCI-H460 lung): > 100 µM

Cc1cc(C)c(NS(=O)c2cccc([N+](=O)[O-])c2)c(C)c1 (stereo not drawn)
TGI (OVCAR-3 ovarian): > 100 µM | TGI (MALME-3M melanoma): > 100 µM | TGI (DU-145 prostate): > 100 µM | TGI (K-562 leukemia): > 100 µM | TGI (SN12C renal): > 100 µM | TGI (NCI-H226 lung): > 100 µM | TGI (SF-295 CNS): > 100 µM | TGI (786-0 renal): > 100 µM | TGI (ACHN renal): > 100 µM | TGI (MOLT-4 leukemia): > 100 µM | TGI (M14 melanoma): > 100 µM | TGI (HOP-92 NSCLC): > 100 µM | TGI (SF-268 CNS): > 100 µM | TGI (HOP-62 NSCLC): > 100 µM | TGI (OVCAR-5 ovarian): > 100 µM | TGI (CCRF-CEM leukemia): > 100 µM | TGI (HL-60(TB) leukemia): > 100 µM | TGI (RXF 393 renal): > 100 µM | TGI (NCI-H460 lung): > 100 µM

c1ccc2c3nnc(c2c1)SCCSCCCSCCS3
TGI (OVCAR-3 ovarian): > 100 µM | TGI (MALME-3M melanoma): 77.3 µM | TGI (DU-145 prostate): > 100 µM | TGI (K-562 leukemia): > 100 µM | TGI (SN12C renal): > 100 µM | TGI (NCI-H226 lung): > 100 µM | TGI (SF-295 CNS): > 100 µM | TGI (786-0 renal): > 100 µM | TGI (ACHN renal): > 100 µM | TGI (M14 melanoma): > 100 µM | TGI (HOP-92 NSCLC): 87.7 µM | TGI (SF-268 CNS): > 100 µM | TGI (HOP-62 NSCLC): 70.9 µM | TGI (OVCAR-5 ovarian): > 100 µM | TGI (CCRF-CEM leukemia): > 100 µM | TGI (HL-60(TB) leukemia): > 100 µM | TGI (RXF 393 renal): 95.7 µM | TGI (SK-MEL-5 melanoma): > 100 µM | TGI (NCI-H460 lung): > 100 µM

O=C1/C(=C\c2c(-c3ccccc3)nn(-c3ccccc3)c2O)C(c2ccccc2)=NN1c1ccccc1
TGI (OVCAR-3 ovarian): > 100 µM | TGI (MALME-3M melanoma): > 100 µM | TGI (DU-145 prostate): > 100 µM | TGI (K-562 leukemia): > 100 µM | TGI (SN12C renal): > 100 µM | TGI (NCI-H226 lung): > 100 µM | TGI (SF-295 CNS): > 100 µM | TGI (786-0 renal): > 100 µM | TGI (ACHN renal): > 100 µM | TGI (MOLT-4 leukemia): > 100 µM | TGI (M14 melanoma): > 100 µM | TGI (HOP-92 NSCLC): > 100 µM | TGI (SF-268 CNS): > 100 µM | TGI (HOP-62 NSCLC): > 100 µM | TGI (OVCAR-5 ovarian): > 100 µM | TGI (CCRF-CEM leukemia): > 100 µM | TGI (HL-60(TB) leukemia): > 100 µM | TGI (RXF 393 renal): > 100 µM | TGI (NCI-H460 lung): > 100 µM

COc1ccc(Nc2nc3ccccc3nc2C(=O)O)cc1
TGI (OVCAR-3 ovarian): > 100 µM | TGI (MALME-3M melanoma): > 100 µM | TGI (DU-145 prostate): > 100 µM | TGI (K-562 leukemia): > 100 µM | TGI (SN12C renal): > 100 µM | TGI (SF-295 CNS): > 100 µM | TGI (786-0 renal): > 100 µM | TGI (ACHN renal): > 100 µM | TGI (MOLT-4 leukemia): > 100 µM | TGI (M14 melanoma): > 100 µM | TGI (HOP-92 NSCLC): > 100 µM | TGI (SF-268 CNS): > 100 µM | TGI (HOP-62 NSCLC): > 100 µM | TGI (OVCAR-5 ovarian): > 100 µM | TGI (CCRF-CEM leukemia): > 100 µM | TGI (HL-60(TB) leukemia): > 100 µM | TGI (RXF 393 renal): > 100 µM | TGI (SK-MEL-5 melanoma): > 100 µM | TGI (NCI-H460 lung): > 100 µM

Cc1cc2c(=O)[nH]nc(N)c2c(N)n1
TGI (MALME-3M melanoma): > 100 µM | TGI (DU-145 prostate): > 100 µM | TGI (K-562 leukemia): > 100 µM | TGI (SN12C renal): > 100 µM | TGI (NCI-H226 lung): > 100 µM | TGI (SF-295 CNS): > 100 µM | TGI (786-0 renal): > 100 µM | TGI (ACHN renal): > 100 µM | TGI (MOLT-4 leukemia): > 100 µM | TGI (M14 melanoma): > 100 µM | TGI (HOP-92 NSCLC): > 100 µM | TGI (SF-268 CNS): > 100 µM | TGI (HOP-62 NSCLC): > 100 µM | TGI (OVCAR-5 ovarian): > 100 µM | TGI (CCRF-CEM leukemia): > 100 µM | TGI (HL-60(TB) leukemia): > 100 µM | TGI (RXF 393 renal): > 100 µM | TGI (SK-MEL-5 melanoma): > 100 µM | TGI (NCI-H460 lung): > 100 µM

NCCc1ccc2c(c1)C(=O)c1c(O)ccc(O)c1C2=O
TGI (OVCAR-3 ovarian): 5.66 µM | TGI (MALME-3M melanoma): 4.75 µM | TGI (DU-145 prostate): > 100 µM | TGI (K-562 leukemia): > 64.2 µM | TGI (NCI-H226 lung): > 100 µM | TGI (SF-295 CNS): > 74.9 µM | TGI (786-0 renal): 8.59 µM | TGI (ACHN renal): > 53.6 µM | TGI (MOLT-4 leukemia): > 100 µM | TGI (M14 melanoma): > 100 µM | TGI (HOP-92 NSCLC): > 100 µM | TGI (SF-268 CNS): 25.3 µM | TGI (HOP-62 NSCLC): 13.4 µM | TGI (OVCAR-5 ovarian): > 87 µM | TGI (CCRF-CEM leukemia): > 100 µM | TGI (HL-60(TB) leukemia): 5.34 µM | TGI (RXF 393 renal): > 100 µM | TGI (SK-MEL-5 melanoma): 3.94 µM | TGI (NCI-H460 lung): > 87.6 µM

CCCCCCCCCC(=O)CC(=O)c1c(O)cc(O)cc1O
TGI (OVCAR-3 ovarian): 53.2 µM | TGI (MALME-3M melanoma): 32.1 µM | TGI (DU-145 prostate): 57.9 µM | TGI (K-562 leukemia): 36.3 µM | TGI (SN12C renal): 37.3 µM | TGI (NCI-H226 lung): 36.2 µM | TGI (SF-295 CNS): 68.2 µM | TGI (786-0 renal): > 75 µM | TGI (ACHN renal): > 75 µM | TGI (MOLT-4 leukemia): 32.1 µM | TGI (M14 melanoma): 39 µM | TGI (HOP-92 NSCLC): 44.7 µM | TGI (SF-268 CNS): 49.5 µM | TGI (HOP-62 NSCLC): 32.5 µM | TGI (OVCAR-5 ovarian): 48.2 µM | TGI (CCRF-CEM leukemia): > 75 µM | TGI (HL-60(TB) leukemia): 42.8 µM | TGI (RXF 393 renal): 31.1 µM | TGI (SK-MEL-5 melanoma): 28.6 µM

N#CC(c1ccccc1)N(CCc1ccccc1)C(=O)Oc1ccccc1 (stereo not drawn)
TGI (OVCAR-3 ovarian): > 100 µM | TGI (MALME-3M melanoma): > 100 µM | TGI (DU-145 prostate): > 100 µM | TGI (K-562 leukemia): > 100 µM | TGI (SN12C renal): > 100 µM | TGI (NCI-H226 lung): > 100 µM | TGI (SF-295 CNS): > 100 µM | TGI (786-0 renal): > 100 µM | TGI (ACHN renal): > 100 µM | TGI (MOLT-4 leukemia): > 100 µM | TGI (M14 melanoma): > 100 µM | TGI (HOP-92 NSCLC): 95.7 µM | TGI (SF-268 CNS): > 100 µM | TGI (HOP-62 NSCLC): > 100 µM | TGI (OVCAR-5 ovarian): > 100 µM | TGI (CCRF-CEM leukemia): > 100 µM | TGI (HL-60(TB) leukemia): > 100 µM | TGI (RXF 393 renal): > 100 µM | TGI (SK-MEL-5 melanoma): > 100 µM

O=C(CCO)OCCCCCC/C=C\CCCCCC/C=C\CCCCCCCCOC(=O)CCO
TGI (OVCAR-3 ovarian): 41.2 µM | TGI (MALME-3M melanoma): 34.7 µM | TGI (DU-145 prostate): 30 µM | TGI (K-562 leukemia): 30.4 µM | TGI (SN12C renal): 31 µM | TGI (SF-295 CNS): 35.5 µM | TGI (786-0 renal): 32.5 µM | TGI (ACHN renal): 64.3 µM | TGI (MOLT-4 leukemia): 28.6 µM | TGI (M14 melanoma): 30.9 µM | TGI (HOP-92 NSCLC): 32.5 µM | TGI (SF-268 CNS): 32.5 µM | TGI (HOP-62 NSCLC): 36.1 µM | TGI (OVCAR-5 ovarian): 32.3 µM | TGI (CCRF-CEM leukemia): 32.2 µM | TGI (HL-60(TB) leukemia): 32.1 µM | TGI (RXF 393 renal): 35 µM | TGI (SK-MEL-5 melanoma): > 100 µM | TGI (NCI-H460 lung): 31.4 µM

COC(=O)CCc1ccc2c(c1)CC1(C2)Cc2ccc3c(c2C1)CCC3 (stereo not drawn)
TGI (OVCAR-3 ovarian): > 100 µM | TGI (MALME-3M melanoma): > 100 µM | TGI (DU-145 prostate): > 100 µM | TGI (K-562 leukemia): > 100 µM | TGI (SN12C renal): > 100 µM | TGI (NCI-H226 lung): > 100 µM | TGI (SF-295 CNS): > 100 µM | TGI (786-0 renal): > 100 µM | TGI (ACHN renal): > 100 µM | TGI (MOLT-4 leukemia): > 100 µM | TGI (M14 melanoma): > 100 µM | TGI (HOP-92 NSCLC): > 100 µM | TGI (SF-268 CNS): > 100 µM | TGI (HOP-62 NSCLC): > 100 µM | TGI (CCRF-CEM leukemia): > 100 µM | TGI (HL-60(TB) leukemia): > 100 µM | TGI (RXF 393 renal): > 100 µM | TGI (SK-MEL-5 melanoma): 90.9 µM | TGI (NCI-H460 lung): > 100 µM
